Paper PMC11760891, “Discovery and Characterization of Two Selective Inhibitors for a Mu-Class Glutathione S-Transferase of 25 kDa from Taenia solium Using Computational and Bioinformatics Tools” (Biomolecules, 2024)

How the values were obtained:
HGSTM1 = target: T1, HGSTM1 (Homo sapiens, UniProt P09488); assay: GSH-CDNB conjugation, absorbance […] nm, single concentration; format: biochemical
T1 construct: gene GSTM1; commercial human GST M1 (Oxford Biomedical Research GS65)
T1 sequence (P09488 2-218): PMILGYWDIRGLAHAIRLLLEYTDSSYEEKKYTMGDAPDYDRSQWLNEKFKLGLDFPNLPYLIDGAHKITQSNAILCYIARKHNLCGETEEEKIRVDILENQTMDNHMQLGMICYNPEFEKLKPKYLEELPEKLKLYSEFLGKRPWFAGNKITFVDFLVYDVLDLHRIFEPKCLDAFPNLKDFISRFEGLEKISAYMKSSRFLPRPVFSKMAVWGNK

Ts25GST = target: T2, Ts25GST (Taenia solium, UniProt Q8MWS0); assay: GSH-CDNB conjugation, absorbance […] nm, dose-response; format: biochemical
T2 construct: about 25 kDa on SDS-PAGE; dimer; no tag mentioned
T2 sequence (Q8MWS0 1-219): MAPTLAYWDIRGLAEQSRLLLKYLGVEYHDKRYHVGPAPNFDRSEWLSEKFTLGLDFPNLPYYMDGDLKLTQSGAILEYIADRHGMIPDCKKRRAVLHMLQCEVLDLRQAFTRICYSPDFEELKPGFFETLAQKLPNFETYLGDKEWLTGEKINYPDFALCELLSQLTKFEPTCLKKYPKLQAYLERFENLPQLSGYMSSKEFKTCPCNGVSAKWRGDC

Structure (SMILES)	inhibition at 40 µM (HGSTM1) [%]	IC50 (Ts25GST) [µM]
O=C(CSc1ncc(-c2ccccc2)nn1)NC1=NN=C(c2ccccc2)CS1 [i11]	33.4 ± 2.2	
O=C(CCN1C(=O)c2ccccc2C1=O)Nc1ccc(Nc2ccccc2)cc1 [i15]	30.8 ± 1.9	25.7 ± 1.1
